# Assay results published in PMC7144563 (Molecules, 2020).
# Protocol: Cellulose membrane was properly treated and mounted in the Franz diffusion cells (diffusion area 4.9 cm^2, compartment volume 20 mL). The acceptor compartment was filled with PBS pH 7.4 and the donor compartment was filled with 1 mL of the formulation described above (100 μg/mL of the compounds). Permeation studies were conducted under constant stirring (90 rpm) at 37 °C. Samples of 0.5 mL were withdrawn from the acceptor compartment at predetermined time intervals (30 min, 1 h, 2 h, 4 h, 6 h, 8 h) and replaced with fresh and preheated PBS. Experiments were repeated in triplicates for each compound and blank experiments containing only the medium were also performed. The samples were analyzed by HPLC without any previous pretreatment.
# Steady state flux (Jss) was calculated from the slope of the linear section of the plot of the amount of permeated compound per unit area (μg/cm^2) against to time. The apparent permeability coefficient (Papp) was calculated using Equation (3), where Cd is the initial concentration of the drug in the donor compartment and Jss is the steady state flux. (3) Papp=Jss/Cd
SMILES,"Papp values compared to the rest of the tested steroids (during the first 4 h (2 h and 4 h) of the in vitro permeability study, considered outlier)",apparent permeability coefficient (Papp) (pH 7.4)
"C[C@]12CCC(=O)C[C@@H]1CC[C@@H]1[C@@H]2CC[C@]2(C)[C@@H](O)CC[C@@H]12 [COMP 3, Androstanolone]",significantly higher,–
"C[C@]12C=CC(=O)C=C1CC[C@@H]1[C@@H]2C(=O)C[C@@]2(C)[C@H]1CC[C@]2(O)C(=O)CO [COMP 27, Prednisone]",–,highest
